Where two headings read alike, the source gives them in different places.
Assays:
[1] = quantum yield for photosensitized production of singlet oxygen; format: physicochemical
Source text: Phototosensitized oxidations involving singlet oxygen, a strong oxidant, are implicated in photodynamic inactivation of viruses and cells, in phototherapy for cancer, in photocarcinogenesis and in photodegradation of dyes and polymers. Quenching of excited singlet and triplet states of many substances by ground state molecular oxygen produces singlet oxygen; the lowest electronically excited singlet state of molecular oxygen. A compilation of the quantum yields for the formation of singlet oxygen in fluid solutions for over 700 substances is available from the Notre Dame Radiation Laboratory—Radiation Chemistry Data Center.
The compounds are divided into two endpoint classes based upon having a high quantum yield for production of singlet oxygen (H, QY>0.50) or a low quantum yield for production of singlet oxygen (L, QY<0.50).

[2] = formation of singlet oxygen in fluid solutions; cited from earlier work
estrogen receptor [3] = assay: estrogen receptor relative binding affinity, expanded training set of 107 compounds; conditions: input class, 107-compound training set
Source text: The training set included weak estrogen receptor binders in addition to strong and medium estrogen receptor binders.
For this model, strong estrogen receptor binders were defined as having log(RBA)>−0.25 and weak estrogen receptor binders were defined as having log(RBA)<−3.0. Medium estrogen receptor binders were defined as having log(RBA) in between.

estrogen receptor [4] = conditions: 107-compound training set; cited from earlier work
estrogen receptor [5] = assay: estrogen receptor binding class of the 30-compound training set
Source text: Two Spectral Data-Activity Relationship (SDAR) models were established, based on ^13C NMR and EI MS spectra, for 30 estrogenic chemicals whose relative binding affinities (RBA) for the alpha (ERα) and beta (ERβ) estrogen receptors are available.
Strong binders to the estrogen receptor were classified as having a log (RBA) over 0.0, and medium binders to the estrogen receptor were classified as having a log (RBA) of less than or equal to 0.0.

[6] = biological target: beta (ERβ) estrogen receptor (Rattus norvegicus, UniProt Q62986); conditions: cited from earlier work
[7] = class from singlet oxygen quantum yield
[8] = SDAR training input endpoint class, 30 compounds
[9] = log of relative binding affinity, 17-β-estradiol RBA = 100

beta (ERβ) estrogen receptor, sequence (Q62986 whole entry): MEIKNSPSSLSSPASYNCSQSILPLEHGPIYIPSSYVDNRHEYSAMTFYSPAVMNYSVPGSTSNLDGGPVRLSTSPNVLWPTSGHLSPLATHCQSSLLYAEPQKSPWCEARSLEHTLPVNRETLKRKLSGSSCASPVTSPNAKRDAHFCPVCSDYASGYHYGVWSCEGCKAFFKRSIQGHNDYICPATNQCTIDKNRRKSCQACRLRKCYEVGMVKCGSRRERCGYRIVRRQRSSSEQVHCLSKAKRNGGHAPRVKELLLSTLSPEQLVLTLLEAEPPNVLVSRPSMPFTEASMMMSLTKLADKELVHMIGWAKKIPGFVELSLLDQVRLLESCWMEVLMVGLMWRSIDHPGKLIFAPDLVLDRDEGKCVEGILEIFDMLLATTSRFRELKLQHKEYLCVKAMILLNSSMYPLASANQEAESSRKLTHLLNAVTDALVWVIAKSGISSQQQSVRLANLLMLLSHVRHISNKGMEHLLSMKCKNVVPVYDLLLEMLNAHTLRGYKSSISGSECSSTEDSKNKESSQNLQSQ

SMILES: c1ccc(-c2oc(-c3ccccc3)c3ccccc23)cc1 [1,3-Diphenylisobenzofuran]
- Endpoint Class [1, 7]: L (low quantum yield for production of singlet oxygen (L, QY<0.50))
- Quantum Yield [2]: 0.26

SMILES: Cn1ccc2ccccc21 [1-Methylindole]
- Endpoint Class [1, 7]: L (low quantum yield for production of singlet oxygen (L, QY<0.50))
- Quantum Yield [2]: 0.35

SMILES: Oc1ccc(OCc2ccccc2)cc1 [4-Benzyloxyphenol]
- Class (estrogen receptor [3]): W (weak estrogen receptor binders were defined as having log(RBA)<−3.0)
- log RBA (estrogen receptor [4]): −3.44

SMILES: CCCCCCCCCc1ccc(O)cc1 [4-Nonylphenol]
- Class (estrogen receptor [3]): M (Medium estrogen receptor binders were defined as having log(RBA) in between)
- log RBA (estrogen receptor [4]): −1.45

SMILES: CC/C(=C(\c1ccc(O)cc1)c1ccc(OCCN(C)C)cc1)c1ccccc1 [4-OH-Tamoxifen]
- Class (estrogen receptor [3]): S (strong estrogen receptor binders were defined as having log(RBA)>−0.25)
- log RBA (estrogen receptor [4]): 2.24

SMILES: O=C1c2ccccc2C(=O)c2ccccc21 [9,10-Anthraquinone]
- Endpoint Class [1, 7]: L (low quantum yield for production of singlet oxygen (L, QY<0.50))
- Quantum Yield [2]: 0.15

SMILES: C[C@]12CC[C@@H]3c4ccc(O)cc4CC[C@H]3[C@@H]1CC[C@H]2O [17α-Estradiol]
- Class Input (estrogen receptor [5]; [8]): S (Strong binders to the estrogen receptor were classified as having a log (RBA) over 0.0)
- Class (estrogen receptor [3]): S (strong estrogen receptor binders were defined as having log(RBA)>−0.25)
- log RBA (estrogen receptor [4]): 0.49

SMILES: C(=C\c1ccccc1)/c1ccccc1 [(E)-Stilbene]
- Endpoint Class [1, 7]: L (low quantum yield for production of singlet oxygen (L, QY<0.50))
- Quantum Yield [2]: 0.08

SMILES: CC(=O)c1ccccc1 [Acetophenone]
- Endpoint Class [1, 7]: L (low quantum yield for production of singlet oxygen (L, QY<0.50))
- Quantum Yield [2]: 0.29

SMILES: c1ccc2nc3ccccc3cc2c1 [Acridine]
- Endpoint Class [1, 7]: H (high quantum yield for production of singlet oxygen (H, QY>0.50))
- Quantum Yield [2]: 0.83

SMILES: c1ccc2cc3ccccc3cc2c1 [Anthracene]
- Endpoint Class [1, 7]: H (high quantum yield for production of singlet oxygen (H, QY>0.50))
- Quantum Yield [2]: 0.83

SMILES: O=C1c2ccccc2Cc2ccccc21 [Anthrone]
- Endpoint Class [1, 7]: L (low quantum yield for production of singlet oxygen (L, QY<0.50))
- Quantum Yield [2]: 0.25

SMILES: O=C1C=CC(=C(c2ccc(O)cc2)c2ccc(O)cc2)C=C1 [Aurin]
- Class (estrogen receptor [3]): M (Medium estrogen receptor binders were defined as having log(RBA) in between)
- log RBA (estrogen receptor [4]): −1.49

SMILES: Oc1ccc(Cc2ccc(O)cc2)cc1 [BIS (4-hydroxyphenyl)-methane]
- Class (estrogen receptor [3]): W (weak estrogen receptor binders were defined as having log(RBA)<−3.0)
- log RBA (estrogen receptor [4]): −3.02

SMILES: O=C(C(=O)c1ccccc1)c1ccccc1 [Benzil]
- Endpoint Class [1, 7]: H (high quantum yield for production of singlet oxygen (H, QY>0.50))

SMILES: O=C(c1ccccc1)c1ccccc1 [Benzophenone]
- Endpoint Class [1, 7]: L (low quantum yield for production of singlet oxygen (L, QY<0.50))
- Quantum Yield [2]: 0.29

SMILES: CC(=O)C(C)=O [Biacetyl]
- Endpoint Class [1, 7]: H (high quantum yield for production of singlet oxygen (H, QY>0.50))
- Quantum Yield [2]: 0.57

SMILES: c1ccc(-c2ccccc2)cc1 [Biphenyl]
- Endpoint Class [1]: H (key: high quantum yield for production of singlet oxygen (H, QY>0.50); low quantum yield for production of singlet oxygen (L, QY<0.50))

SMILES: CCC(C)(c1ccc(O)cc1)c1ccc(O)cc1 [Bisphenol B]
- Class (estrogen receptor [3]): M (Medium estrogen receptor binders were defined as having log(RBA) in between)
- log RBA (estrogen receptor [4]): −1.07

SMILES: O=c1oc2cc(O)ccc2c2oc3cc(O)ccc3c12 [Coumestrol]
- Log-(RBA) beta [6, 9]: 2.27

SMILES: Clc1ccc(C(c2ccccc2Cl)C(Cl)(Cl)Cl)cc1 (centres unmarked) [DDT-o,p′]
- Class (estrogen receptor [3]): W (weak estrogen receptor binders were defined as having log(RBA)<−3.0)
- log RBA (estrogen receptor [4]): −2.85

SMILES: CC/C(=C(/CC)c1ccc(O)cc1)c1ccc(O)cc1 [Diethystibesterol]
- Class Input (estrogen receptor [5]): S (key: Strong binders to the estrogen receptor were classified as having a log (RBA) over 0.0; M: medium binders to the estrogen receptor were classified as having a log (RBA) of less than or equal to 0.0)
- Class (estrogen receptor [3]): S (strong estrogen receptor binders were defined as having log(RBA)>−0.25)
- Log-(RBA) beta [6]: 2.47
- log RBA (estrogen receptor [4]): 2.60

SMILES: C[C@]12CCC(=O)C[C@@H]1CC[C@@H]1[C@@H]2CC[C@]2(C)[C@@H](O)CC[C@@H]12 [Dihydrotestosterone]
- Class Input (estrogen receptor [5]): M (key: Strong binders to the estrogen receptor were classified as having a log (RBA) over 0.0; M: medium binders to the estrogen receptor were classified as having a log (RBA) of less than or equal to 0.0)
- Log-(RBA) beta [6]: −0.77

SMILES: CC(CCC(=O)O)(c1ccc(O)cc1)c1ccc(O)cc1 [Diphenolic acid]
- Class (estrogen receptor [3]): W (weak estrogen receptor binders were defined as having log(RBA)<−3.0)
- log RBA (estrogen receptor [4]): −3.13

SMILES: C[C@]12CC[C@@H]3c4ccc(O)cc4[C@@H](O)C[C@H]3[C@@H]1CC[C@@H]2O [Estra-1,3,5(10)-trien-3,6α,17β-triol]
- Class (estrogen receptor [3]): S (strong estrogen receptor binders were defined as having log(RBA)>−0.25)
- log RBA (estrogen receptor [4]): −0.15

SMILES: C[C@@]12CCC[C@H]1[C@@H]1CCc3cc(O)ccc3[C@H]1CC2 [Estra-1,3,5(10)-trien-3-ol]
- Class (estrogen receptor [3]): S (strong estrogen receptor binders were defined as having log(RBA)>−0.25)
- log RBA (estrogen receptor [4]): 1.14

SMILES: C[C@]12CC[C@@H]3c4ccc(O)cc4CC[C@H]3[C@@H]1C[C@@H](O)[C@@H]2O [Estriol]
- Log-(RBA) beta [6, 9]: 1.32

SMILES: c1ccc2c(c1)Cc1ccccc1-2 [Flourene]
- Endpoint Class [1, 7]: H (high quantum yield for production of singlet oxygen (H, QY>0.50))
- Quantum Yield [2]: 0.74

SMILES: O=c1c(-c2ccc(O)cc2)coc2cc(O)cc(O)c12 [Genistein]
- Class Input (estrogen receptor [5]; [8]): S (Strong binders to the estrogen receptor were classified as having a log (RBA) over 0.0)
- Class (estrogen receptor [3]): M (Medium estrogen receptor binders were defined as having log(RBA) in between)

SMILES: CCCCN(C)C(=O)CCCCCCCCCC[C@@H]1Cc2cc(O)ccc2[C@H]2CC[C@]3(C)[C@@H](O)CC[C@H]3[C@H]12 [ICI 164,384]
- Class Input (estrogen receptor [5]; [8]): S (Strong binders to the estrogen receptor were classified as having a log (RBA) over 0.0)
- Class (estrogen receptor [3]): S (strong estrogen receptor binders were defined as having log(RBA)>−0.25)
- Log-(RBA) beta [6, 9]: 2.22
- log RBA (estrogen receptor [4]): 1.16

SMILES: C#C[C@]1(O)CC[C@H]2[C@@H]3CCc4cc(OC)ccc4[C@H]3CC[C@@]21C [Mestranol]
- Class (estrogen receptor [3]): S (strong estrogen receptor binders were defined as having log(RBA)>−0.25)
- RBA (estrogen receptor [4]): 035

SMILES: O=C1C=Cc2cccc3cccc1c23 [Phenalen-1-one]
- Endpoint Class [1, 7]: H (high quantum yield for production of singlet oxygen (H, QY>0.50))
- Quantum Yield [2]: 0.94

SMILES: CC(C)(C)C(=S)c1ccccc1 [Pivalothiophenone]
- Endpoint Class [1, 7]: H (high quantum yield for production of singlet oxygen (H, QY>0.50))
- Quantum Yield [2]: 1.0

SMILES: O=c1ccc2cc3ccoc3cc2o1 [Psoralen]
- Endpoint Class [1, 7]: L (low quantum yield for production of singlet oxygen (L, QY<0.50))
- Quantum Yield [2]: 0.0055

SMILES: c1cc2ccc3cccc4ccc(c1)c2c34 [Pyrene]
- Endpoint Class [1, 7]: H (high quantum yield for production of singlet oxygen (H, QY>0.50))
- Quantum Yield [2]: 0.71

SMILES: CC/C(=C(\c1ccccc1)c1ccc(OCCN(C)C)cc1)c1ccccc1 [Tamoxifen]
- Class Input (estrogen receptor [5]; [8]): S (Strong binders to the estrogen receptor were classified as having a log (RBA) over 0.0)
- Class (estrogen receptor [3]): S (strong estrogen receptor binders were defined as having log(RBA)>−0.25)

SMILES: c1ccc2cc3cc4ccccc4cc3cc2c1 [Tetracene]
- Endpoint Class [1, 7]: H (high quantum yield for production of singlet oxygen (H, QY>0.50))
- Quantum Yield [2]: 0.70

SMILES: C(=C(c1ccccc1)c1ccccc1)c1ccccc1 [Triphenylethylene]
- Class (estrogen receptor [3]): W (weak estrogen receptor binders were defined as having log(RBA)<−3.0)
- log RBA (estrogen receptor [4]): −2.78

From patent US6898533B1, “Methods for predicting the biological, chemical, and physical properties of molecules from their spectral properties” (The United States of America as represented by the …, priority 2000, dated 2005)
